Consider three compounds from publication PMC10305119, “Analogs of 6-Bromohypaphorine with Increased Agonist Potency for α7 Nicotinic Receptor as Anti-Inflammatory Analgesic Agents” (Marine Drugs, 2023).

One test deals with T1, α9α10 nAChR (Homo sapiens, UniProt Q9GZZ6+Q9UGM1).
T1 construct: expressed in transfected cells; host or cells: Xenopus oocytes injected with in vitro transcribed RNA
As to the kind of experiment: Two-electrode voltage-clamp on α9/α10 nAChR in Xenopus oocytes. Type of test: cell-based. The protocol:
Recordings were performed using Axopatch 200 amplifier in two-electrode voltage-clamp setup (Molecular Devices, LLC, San Jose, CA, USA) on oocytes removed from mature Xenopus frogs. Two to three days before taking recordings, oocytes were injected with in vitro transcribed RNA, coding α9 and α10 nAChR and kept at 18 °C in ND96 electrophysiology buffer solution (5 mM HEPES/NaOH at pH 7.6 and 18 °C, 96 mM NaCl, 2 mM KCl, 1.8 mM CaCl2, 2 mM MgCl2).
(In general: In two-electrode clamp one electrode senses voltage and the other passes current.)

Test [1] concerns CD11c expression on macrophages. Kind of test: Flow cytometry of macrophage membrane protein CD11c. It counts as cell-based, human. To be noted: 48 h. The protocol: The selective agonist PNU 282,987 increased CD11b and CD11c protein expression by an average of 10% and 26%, respectively (Figure 4a,b).
(§1) Peripheral blood mononuclear cells (PBMCs) were separated by Ficoll-Paque PLUS density gradient centrifugation. PBMCs were placed in a sterile Petri dish and incubated at 37 °C for 2 h. Unattached cells were then removed by washing with PBS and substituted with fresh complete RPMI 1640 medium. To generate monocyte-derived macrophages (MDMs), 50 ng/mL GM-CSF was added to the isolated monocytes and cultured for 6 days to differentiate them into non-polarized MDMs.
(§2) Figure 4 The effects of PNU 282987, hypaphorine, and D-6-iodohypaphorine methyl ester (6ID) on macrophage membrane proteins expression. Cells were treated with these compounds for 48 h and then analyzed by flow cytometry. PNU 282,987 led to an increase in the (a) CD11b and (b) CD11c expression. (c): All tested compounds led to a decrease in TLR4 expression. (d): Macrophages stimulation with hypaphorine and 6ID promoted an increase in CD86 expression. Results obtained in three independent experiments on macrophages from different donors and presented as mean ± SD. One-way ANOVA tests with Tukey post hoc test: * p ˂0.05, ** p ˂ 0.01, **** p < 0.0001 in comparison with untreated cells.
(In flow cytometry, cells or beads pass a laser one at a time.)

For test [2], the system named is TLR4 expression on macrophages. As to the kind of experiment: Flow cytometry of TLR4 receptor on macrophages. To be noted: 48 h incubation. Type of test: cell-based, human. The protocol:
(§3) The effect of the above-listed compounds on the expression of the TLR4 receptor and the CD86 protein was studied by flow cytometry after 48 h incubation with macrophages. The interaction of bacterial endotoxins with the TLR4 receptor is known to activate the expression of several pro-inflammatory cytokine genes, while the co-stimulatory molecule CD86 plays an important role in […] inflammatory responses. A decrease in the expression of the TLR4 receptor was observed under the action of all tested compounds (Figure 4c,e), the rank order of these TLR4-suppressing effects was as follows: hypaphorine (14%) < PNU 282,987 (21%) < 6ID (31%).
as §1, §2

Test [3] relates to CD86 expression on macrophages. As to the kind of experiment: Flow cytometry of CD86 protein on macrophages. It counts as cell-based, human. The note with it: 48 h incubation. The protocol:
as §3, §1, §2

The next test relates to ERK 1/2 phosphorylation. Kind of test: ERK1/2 phosphorylation in LPS-stimulated macrophages (flow cytometry). Type of test: cell-based, human. The note with it: compound 1 h, then LPS 3 h; control MFI 194; listed as 6ID. The protocol: (§4) To gain an insight into the signaling induced by the tested compounds, ERK1/2 and STAT3 phosphorylation was checked. Macrophages were treated with tested compounds for 1 h, after which they were stimulated with LPS for 3 h.
as §1
Figure 5 Effects of the analyzed compounds on signaling pathways in LPS-stimulated macrophages. Cells were treated with PNU 282987, hypaphorine, or 6-iodohypaphorine methyl ester (6ID) for 1 h and then stimulated with LPS for 3 h. Phosphorylated ERK1/2 and STAT3 were quantified by flow cytometry with specific antibodies. […] (c): Representative histogram showing the increase in ERK 1/2 phosphorylation in comparison to control. The numbers in the histograms show the MFI ± SD (n = 3). MFI—geometrical mean fluorescence intensity. One-way ANOVA tests with Tukey post hoc test: * p ˂ 0.05, ** p ˂ 0.01, *** p < 0.001 in comparison with untreated cells. […]

The next test has as its system STAT3 phosphorylation. As to the kind of experiment: STAT3 phosphorylation in LPS-stimulated macrophages (flow cytometry). Type of test: cell-based, human. To be noted: compound 1 h, then LPS 3 h; control MFI 49. The protocol:
as §4, §1
Figure 5 Effects of the analyzed compounds on signaling pathways in LPS-stimulated macrophages. Cells were treated with PNU 282987, hypaphorine, or 6-iodohypaphorine methyl ester (6ID) for 1 h and then stimulated with LPS for 3 h. Phosphorylated ERK1/2 and STAT3 were quantified by flow cytometry with specific antibodies. […] (c): Representative histogram showing the increase in ERK 1/2 phosphorylation in comparison to control. The numbers in the histograms show the MFI ± SD (n = 3). MFI—geometrical mean fluorescence intensity. One-way ANOVA tests with Tukey post hoc test: * p ˂ 0.05, ** p ˂ 0.01, *** p < 0.001 in comparison with untreated cells. TEXT PRINTED IN THE PICTURE: (c) Control: PE-ERK 1/2 Phospho: 193.7±1.5 | (c) PNU 282987: PE-ERK 1/2 Phospho: 251.3±13.7 | (c) Hy: PE-ERK 1/2 Phospho: 246.0±15.7 | (c) 6ID: PE-ERK 1/2 Phospho: 273.7±8.1 DOUBTS OF THE COPYIST ABOUT THIS PICTURE: Panel c: no measure or unit is printed beside the numbers; the x-axis label "PE-ERK 1/2 Phospho" is used as the measure / "Control" is the untreated reference rather than a substance; it is included because a value is printed with it

The test system of test [4] is carrageenan-induced inflammation. Kind of test: Carrageenan-induced inflammation test. The note with it: for oedema (paw diameter): 0.5 mg/kg (hypaphorine and 6ID also 1 mg/kg); for analgesia in von Frey test: versus vehicle. Type of test: in vivo, ICR mice. The protocol:
Subplantar 1% carrageenan injections in a volume of 30 μL into the right hind paw were carried out to generate an inflammation model in mice. The paw volume was measured beforehand using an electronic calliper. The maximum effect of the introduction of carrageenan was observed after 3 h. […] The control group was treated with saline (0.9% NaCl). Two hours after the drug administration (total 3 h from carrageenan injection), the size of the pad of the right hind paw was measured, the von Frey test and paw pressure analgesimeter pain sensitivity assessment were performed.
Carrageenan inflammation was induced by injecting 30 μL of a 1% carrageenan suspension (Sigma-Aldrich, lot #SLBK3896V) into the subplantar surface of the ICR mice hind paw. The oedema degree of the carrageenan-induced paw was evaluated using an electronic calliper by the volume difference of the animal’s right hind paw after (3 h from carrageenan injection) and before being hurt by carrageenan.
[…] The control group was treated with saline (0.9% NaCl).
Antinociceptive testing was performed 2 h after the drug administration (3 h after carrageenan injection).
Nociceptive testing was performed by utilizing the von Frey test and Paw pressure test.
The animals were placed in 20 cm × 20 cm Plexiglas boxes equipped with a metallic mesh floor. Animals were allowed to habituate themselves to their environment for 15 min before the test. […] The paw sensitivity threshold was defined as the minimum force required to elicit a robust and immediate withdrawal reflex of the paw. Spontaneous movements associated with locomotion were not considered as a withdrawal response. Measurements were repeated 3 times and the final value was obtained by averaging the 3 measurements.
Mechanical hyperalgesia was measured as a paw withdrawal response to a gradual increase of mechanical pressure applied by the Rodent pinchers—analgesia meter (model BIO-RP-M; BioSeb, Vitrolles, France). The influence of stimulation on each hind paw was recorded three times. The maximum force applied to the paw was recorded as the grams (g) of force on the dynamometer.

Test [5] has as its system myocardial infarction model. Set-up: method as in PMID 35538277. To be noted: cited from earlier work.

Entries after “also recorded” stand apart in the source; their conditions may differ.

T1 sequence (Q9UGM1 26-479 limits assumed): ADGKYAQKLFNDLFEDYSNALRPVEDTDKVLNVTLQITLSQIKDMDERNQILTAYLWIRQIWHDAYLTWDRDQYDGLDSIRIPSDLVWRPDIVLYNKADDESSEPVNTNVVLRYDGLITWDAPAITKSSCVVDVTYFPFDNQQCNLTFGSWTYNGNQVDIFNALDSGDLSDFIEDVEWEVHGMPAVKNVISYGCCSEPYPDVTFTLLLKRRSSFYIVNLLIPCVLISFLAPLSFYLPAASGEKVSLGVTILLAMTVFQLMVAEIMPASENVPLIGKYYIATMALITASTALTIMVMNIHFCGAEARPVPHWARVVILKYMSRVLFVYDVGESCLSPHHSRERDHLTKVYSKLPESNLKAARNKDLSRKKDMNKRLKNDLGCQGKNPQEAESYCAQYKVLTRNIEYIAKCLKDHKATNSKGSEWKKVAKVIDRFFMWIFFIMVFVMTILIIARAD
T1 sequence (Q9GZZ6 25-450): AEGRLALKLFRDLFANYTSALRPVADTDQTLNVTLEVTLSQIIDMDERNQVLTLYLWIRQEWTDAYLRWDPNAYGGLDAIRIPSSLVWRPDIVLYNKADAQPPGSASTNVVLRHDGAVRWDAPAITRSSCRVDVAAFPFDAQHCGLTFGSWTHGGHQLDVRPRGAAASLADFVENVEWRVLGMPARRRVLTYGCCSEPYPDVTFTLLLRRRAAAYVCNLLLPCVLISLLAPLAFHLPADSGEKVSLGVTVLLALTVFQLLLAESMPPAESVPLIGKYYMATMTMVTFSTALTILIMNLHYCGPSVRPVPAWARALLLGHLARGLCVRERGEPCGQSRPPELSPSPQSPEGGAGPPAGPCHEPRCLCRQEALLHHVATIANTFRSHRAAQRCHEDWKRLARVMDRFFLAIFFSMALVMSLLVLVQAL

On to `COC(=O)[C@@H](Cc1c[nH]c2cc(I)ccc12)[N+](C)(C)C` [Compound 1, (D)-6-iodohypaphorine methyl ester], for which, on α9α10 nAChR, the “activity toward α9α10 nAChR” value was “almost inactive”. Besides, in test [1] (listed as 6ID), the “increase in CD11c protein expression” value was “not statistically significant; also recorded: but not 6ID or hypaphorine, leads to a significant increase”. Also, the “decrease in the expression of the TLR4 receptor” value in test [2] is recorded as 31%. In addition, the “increase in the expression of CD86” value in test [3] is 21%. The “ERK 1/2 phosphorylation, MFI” value in the test on ERK 1/2 phosphorylation was found to be 274. Also, the “STAT3 phosphorylation, MFI” value in the test with STAT3 phosphorylation was found to be 58. Besides, in test [4] (mice, 2 h after drug, listed as 6ID), the “oedema (paw diameter)” value was “marked decrease in paw diameter at doses 0.5 and 1 mg/kg”. Besides, the “analgesia in von Frey test” value in test [4] (mice, 2 h after drug) is reported as “significant analgesia”. In test [4] (rodents, doses 0.1 and 0.5 mg/kg), the “carrageenan-induced allodynia and hyperalgesia” value was “decreased carrageenan-induced allodynia and hyperalgesia”.
In the case of `C[N+](C)(C)[C@H](Cc1c[nH]c2ccccc12)C(=O)[O-]` [Compound 16, L-hypaphorine, reference compound], the “increase in CD11c protein expression” value in test [1] is on record as “but not 6ID or hypaphorine, leads to a significant increase”. For the same compound, the “decrease in the expression of the TLR4 receptor” value in test [2] is reported as 14%. In addition, in the test on STAT3 phosphorylation, the “STAT3 phosphorylation, MFI” value is on record as “increase in the phosphorylation”. In addition, in test [4] (mice, 2 h after drug), the “analgesia in paw pressure test (mechanical hyperalgesia)” value is “strong evidence of analgesia in algesimeter and von Frey tests”; the “oedema (paw diameter)” value is recorded as “only a tendency to decrease oedema, not statistically significant”; the “analgesia in von Frey test” value was “significant analgesia”. Further, the “oedema (paw diameter)” value in test [4] (mice, 2 h after drug, listed as synthetic hypaphorine) is given as “No significant effect”.
For `COC(=O)C(Cc1c[nH]c2cc([N+](=O)[O-])ccc12)[N+](C)(C)C` (stereo not shown) [Compound 5, methyl ester of 6-nitrohypaphorine], in test [4] (mice, 2 h after drug, listed as 6ND), the “oedema (paw diameter)” value was “moderate anti-oedemic effect at a dose of 0.5 mg/kg”. The “analgesia in von Frey test” value in test [4] (mice, 2 h after drug) is on record as “significant analgesia”. In test [5], the “effect in myocardial infarction model” value was “significant positive effect”.
